{"source": "ChEMBL document CHEMBL4765237", "about": "“Structural optimization and structure-activity relationship studies of N-phenyl-7,8-dihydro-6H-pyrimido[5,4-b][1,4]oxazin-4-amine derivatives as a new class of inhibitors of RET and its drug resistance mutants” (Eur J Med Chem, 2018)", "key": {"CDK4/Cyclin D3": {"target": "CDK4/Cyclin D3 (Homo sapiens, UniProt P11802)", "assay": "Inhibition of recombinant full length human CDK4/CyclinD3 using Rb fragment as substrate incubated for 40 mins in presence of [gamma-33ATP] by scintillation counting based radiometry assay", "type": "protein-complex assay"}, "[1]": {"target": "Platelet-derived growth factor receptor alpha (Homo sapiens, UniProt P16234)", "sequence (P16234 whole entry)": "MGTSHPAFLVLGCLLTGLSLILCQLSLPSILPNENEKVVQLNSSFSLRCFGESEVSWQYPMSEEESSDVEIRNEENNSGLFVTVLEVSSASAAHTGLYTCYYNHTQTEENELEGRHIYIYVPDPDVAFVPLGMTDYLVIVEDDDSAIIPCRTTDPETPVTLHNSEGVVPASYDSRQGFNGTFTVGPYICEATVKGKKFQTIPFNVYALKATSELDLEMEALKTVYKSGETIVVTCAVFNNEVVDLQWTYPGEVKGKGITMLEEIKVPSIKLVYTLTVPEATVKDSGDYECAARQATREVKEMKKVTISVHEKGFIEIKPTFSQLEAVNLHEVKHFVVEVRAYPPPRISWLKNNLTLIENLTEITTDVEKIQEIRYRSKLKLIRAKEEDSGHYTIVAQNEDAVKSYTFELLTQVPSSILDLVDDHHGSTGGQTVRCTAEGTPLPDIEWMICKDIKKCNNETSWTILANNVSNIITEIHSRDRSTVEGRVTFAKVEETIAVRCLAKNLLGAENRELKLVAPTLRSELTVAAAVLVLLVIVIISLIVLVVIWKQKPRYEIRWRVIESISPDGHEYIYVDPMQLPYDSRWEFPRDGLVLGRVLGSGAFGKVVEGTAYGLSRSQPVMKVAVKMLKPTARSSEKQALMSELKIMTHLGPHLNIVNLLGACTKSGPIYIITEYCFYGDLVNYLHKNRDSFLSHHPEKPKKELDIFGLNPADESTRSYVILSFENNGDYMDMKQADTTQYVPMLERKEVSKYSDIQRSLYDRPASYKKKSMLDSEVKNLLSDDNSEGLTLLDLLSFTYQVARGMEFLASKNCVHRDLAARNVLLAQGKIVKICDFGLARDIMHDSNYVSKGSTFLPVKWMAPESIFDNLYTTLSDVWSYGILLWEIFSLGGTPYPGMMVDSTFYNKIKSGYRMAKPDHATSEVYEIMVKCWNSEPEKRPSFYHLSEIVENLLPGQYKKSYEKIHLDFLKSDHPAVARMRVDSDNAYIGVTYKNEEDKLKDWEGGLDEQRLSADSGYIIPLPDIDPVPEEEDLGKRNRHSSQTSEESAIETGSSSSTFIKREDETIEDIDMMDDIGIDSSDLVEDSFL", "assay": "Inhibition of human PDGFRalpha (550 to end residues) using poly(Glu, Tyr) 4:1 as substrate measured after 40 mins in presence of [gamma33P]ATP by scintillation counting based radiometry assay"}, "[2]": {"target": "Mitogen-activated protein kinase 13 (Homo sapiens, UniProt O15264)", "sequence (O15264 whole entry)": "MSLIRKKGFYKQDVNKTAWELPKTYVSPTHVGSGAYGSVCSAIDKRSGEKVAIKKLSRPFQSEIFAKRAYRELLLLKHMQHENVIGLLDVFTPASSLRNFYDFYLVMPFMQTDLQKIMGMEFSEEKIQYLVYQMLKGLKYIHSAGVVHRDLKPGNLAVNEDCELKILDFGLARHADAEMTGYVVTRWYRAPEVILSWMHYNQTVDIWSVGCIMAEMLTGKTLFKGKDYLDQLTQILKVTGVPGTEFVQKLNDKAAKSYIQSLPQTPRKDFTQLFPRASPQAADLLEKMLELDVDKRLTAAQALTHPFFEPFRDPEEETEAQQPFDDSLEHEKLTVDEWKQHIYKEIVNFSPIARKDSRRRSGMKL", "assay": "Inhibition of recombinant human full length SAPK4 using myelin basic protein as substrate incubated for 40 mins in presence of [gamma33P]ATP by scintillation counting based radiometry assay"}, "BaF3 [3]": {"system": "BaF3", "assay": "Growth inhibition of mouse BaF3 cells incubated for 3 days by MTT assay", "type": "functional", "conditions": "BaF3, 72 h, time 3 day"}, "[4]": {"target": "RAF proto-oncogene serine/threonine-protein kinase (Homo sapiens, UniProt P04049)", "sequence (P04049 whole entry)": "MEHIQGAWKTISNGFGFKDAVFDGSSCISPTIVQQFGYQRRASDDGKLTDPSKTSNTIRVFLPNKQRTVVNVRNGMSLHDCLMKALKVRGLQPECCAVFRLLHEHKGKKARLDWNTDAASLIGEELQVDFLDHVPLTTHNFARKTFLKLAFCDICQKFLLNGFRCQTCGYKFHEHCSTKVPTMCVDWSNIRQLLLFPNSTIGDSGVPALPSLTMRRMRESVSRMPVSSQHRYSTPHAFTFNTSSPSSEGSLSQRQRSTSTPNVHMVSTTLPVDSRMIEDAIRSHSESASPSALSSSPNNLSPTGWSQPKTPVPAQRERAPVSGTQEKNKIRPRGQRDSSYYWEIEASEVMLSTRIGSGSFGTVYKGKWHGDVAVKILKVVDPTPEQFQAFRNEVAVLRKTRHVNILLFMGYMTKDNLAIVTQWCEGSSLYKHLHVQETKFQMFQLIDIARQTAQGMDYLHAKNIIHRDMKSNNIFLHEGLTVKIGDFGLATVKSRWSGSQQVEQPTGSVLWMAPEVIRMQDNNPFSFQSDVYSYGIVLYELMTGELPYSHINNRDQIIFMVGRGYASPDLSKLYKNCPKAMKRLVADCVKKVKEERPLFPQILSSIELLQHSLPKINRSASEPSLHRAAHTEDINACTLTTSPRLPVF", "assay": "Inhibition of recombinant human C-Raf (306 to end residues) poly(Glu, Tyr) 4:1 as substrate incubated 40 mins in presence of [gamma-33ATP] by scintillation counting based radiometry assay"}, "NCI-H1975": {"system": "NCI-H1975", "assay": "Growth inhibition of human NCI-H1975 cells incubated for 3 days by MTT assay", "type": "functional", "conditions": "NCI-H1975, 72 h, time 3 day"}, "Ephrin type-A receptor 2": {"target": "Ephrin type-A receptor 2 (Homo sapiens, UniProt P29317)", "assay": "Inhibition of recombinant human EphA2 (596 to 900 residues) using poly(Glu, Tyr) 4:1 as substrate incubated for 40 mins in presence of [gamma-33ATP] by scintillation counting based radiometry assay"}, "[5]": {"assay": "Growth inhibition of human HTH-83 cells incubated for 3 days by MTT assay", "type": "functional", "conditions": "HTh83, 72 h, time 3 day"}, "Mus musculus [6]": {"species_on_record": "Mus musculus", "conditions": "NOD-SCID, dose 30.0 mg/kg, time 18.0 day"}, "[7]": {"target": "Vascular endothelial growth factor receptor 3 (Homo sapiens, UniProt P35916)", "sequence (P35916 whole entry)": "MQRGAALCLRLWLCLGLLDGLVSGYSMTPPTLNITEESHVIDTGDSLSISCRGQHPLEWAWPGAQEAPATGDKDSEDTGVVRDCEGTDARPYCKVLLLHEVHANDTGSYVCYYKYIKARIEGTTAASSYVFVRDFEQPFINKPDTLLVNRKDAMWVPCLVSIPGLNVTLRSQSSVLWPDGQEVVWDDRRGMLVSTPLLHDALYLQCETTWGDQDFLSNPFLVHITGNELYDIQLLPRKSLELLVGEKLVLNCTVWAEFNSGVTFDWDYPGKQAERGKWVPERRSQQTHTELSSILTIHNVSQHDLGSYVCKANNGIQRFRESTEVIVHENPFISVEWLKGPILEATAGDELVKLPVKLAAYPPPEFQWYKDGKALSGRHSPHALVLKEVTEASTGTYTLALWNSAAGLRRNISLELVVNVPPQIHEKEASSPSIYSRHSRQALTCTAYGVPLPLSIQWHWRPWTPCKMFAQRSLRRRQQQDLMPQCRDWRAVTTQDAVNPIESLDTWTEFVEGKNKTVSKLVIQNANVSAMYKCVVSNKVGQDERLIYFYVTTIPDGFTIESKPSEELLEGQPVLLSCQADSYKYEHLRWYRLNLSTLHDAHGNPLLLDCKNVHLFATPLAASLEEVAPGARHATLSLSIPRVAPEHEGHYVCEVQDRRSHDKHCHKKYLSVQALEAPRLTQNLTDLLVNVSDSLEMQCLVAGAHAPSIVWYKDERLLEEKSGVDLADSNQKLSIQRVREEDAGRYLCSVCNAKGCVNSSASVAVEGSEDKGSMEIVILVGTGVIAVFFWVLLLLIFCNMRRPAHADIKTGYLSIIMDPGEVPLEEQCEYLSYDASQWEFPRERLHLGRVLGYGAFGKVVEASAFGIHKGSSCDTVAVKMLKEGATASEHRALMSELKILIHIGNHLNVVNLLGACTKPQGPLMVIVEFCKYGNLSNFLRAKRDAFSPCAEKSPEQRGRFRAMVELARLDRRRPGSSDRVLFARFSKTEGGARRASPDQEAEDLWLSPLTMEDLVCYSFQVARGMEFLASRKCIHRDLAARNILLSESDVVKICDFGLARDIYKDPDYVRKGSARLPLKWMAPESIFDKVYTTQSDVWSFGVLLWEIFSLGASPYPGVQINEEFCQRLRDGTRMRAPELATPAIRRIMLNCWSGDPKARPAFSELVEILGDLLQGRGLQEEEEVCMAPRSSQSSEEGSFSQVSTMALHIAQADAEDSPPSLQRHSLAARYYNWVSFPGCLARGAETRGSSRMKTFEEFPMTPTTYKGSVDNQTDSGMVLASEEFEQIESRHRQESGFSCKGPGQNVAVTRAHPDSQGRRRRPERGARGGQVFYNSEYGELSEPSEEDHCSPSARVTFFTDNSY", "assay": "Inhibition of recombinant human FLT4 (800 to end residues) using GGEEEEYFELVKKKK as substrate incubated for 40 mins in presence of [gamma-33ATP] by scintillation counting based radiometry assay"}, "[8]": {"target": "Macrophage colony-stimulating factor 1 receptor (Homo sapiens, UniProt P07333)"}, "[9]": {"assay": "Cmax in Sprague-Dawley rat at 10 mg/kg, po measured upto 24 hrs by LC-MS/MS analysis", "type": "ADME, organism-based", "design": "route oral, dose 10 mg/kg, time <=24", "conditions": "in vivo"}, "[10]": {"target": "Mitogen-activated protein kinase 11 (Homo sapiens, UniProt Q15759)", "assay": "Inhibition of recombinant human full length SAPK2b using myelin basic protein as substrate incubated for 40 mins in presence of [gamma33P]ATP by scintillation counting based radiometry assay"}, "[11]": {"target": "Interleukin-1 receptor-associated kinase 1 (Homo sapiens, UniProt P51617)", "assay": "Inhibition of human IRAK1 (194 to end residues) using myelin basic protein as substrate after 40 mins by [gamma-33ATP] radiometric assay"}, "Mus musculus [12]": {"species_on_record": "Mus musculus", "conditions": "NOD-SCID, dose 30.0 mg/kg, time 18.0 day", "remark": "listed apart in the source"}, "[13]": {"target": "Tyrosine-protein kinase Blk (Homo sapiens, UniProt P51451)", "assay": "Inhibition of recombinant full length human BLK using poly(Glu, Tyr) 4:1 as substrate incubated for 40 mins in presence of [gamma-33ATP] by scintillation counting based radiometry assay"}, "[14]": {"assay": "Growth inhibition of human Ocut-2C cells incubated for 3 days by MTT assay", "type": "functional", "conditions": "OCUT2C, 72 h, time 3 day"}, "BaF3 [15]": {"system": "BaF3", "assay": "Growth inhibition of mouse BaF3 cells harboring RET V804M mutant incubated for 3 days by MTT assay", "type": "functional", "conditions": "BaF3, 72 h, time 3 day"}, "[16]": {"target": "Tyrosine-protein kinase HCK (Homo sapiens, UniProt P08631)", "assay": "Inhibition of human HCK (230 to 497 residues) using […] as substrate after 40 mins by [gamma-33ATP] radiometric assay"}, "DU-145": {"system": "DU-145", "assay": "Growth inhibition of human DU-145 cells incubated for 3 days by MTT assay", "type": "functional", "conditions": "DU-145, 72 h, time 3 day"}, "[17]": {"assay": "Clearance in Sprague-Dawley rat at 10 mg/kg, po measured upto 24 hrs by LC-MS/MS analysis", "type": "ADME, organism-based", "conditions": "in vivo"}, "CDK9/cyclin T1": {"target": "CDK9/cyclin T1 (Homo sapiens, UniProt P50750)", "assay": "Inhibition of recombinant full length human CDK9/cyclinT1 using KTFCGTPEYLAPE as substrate incubated for 40 mins in presence of [gamma-33ATP] by scintillation counting based radiometry assay", "type": "protein-complex assay"}, "MGC-803": {"system": "MGC-803", "assay": "Growth inhibition of human MGC-803 cells incubated for 3 days by MTT assay", "type": "functional", "conditions": "MGC-803, 72 h, time 3 day"}, "Aurora kinase B": {"target": "Aurora kinase B (Homo sapiens, UniProt Q96GD4)", "sequence (Q96GD4 whole entry)": "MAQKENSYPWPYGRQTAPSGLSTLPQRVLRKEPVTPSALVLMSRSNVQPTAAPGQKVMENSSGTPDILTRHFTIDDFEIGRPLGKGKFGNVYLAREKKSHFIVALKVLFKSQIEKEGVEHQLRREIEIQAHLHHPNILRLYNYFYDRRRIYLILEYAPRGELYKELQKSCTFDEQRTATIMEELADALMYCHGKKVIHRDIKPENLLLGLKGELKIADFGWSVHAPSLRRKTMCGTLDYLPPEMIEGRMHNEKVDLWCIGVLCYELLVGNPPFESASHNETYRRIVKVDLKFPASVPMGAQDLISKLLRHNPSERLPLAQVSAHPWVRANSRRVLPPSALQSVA", "assay": "Inhibition of recombinant full length human Aurora B using AKRRRLSSLRA as substrate incubated for 40 mins in presence of [gamma-33ATP] by scintillation counting based radiometry assay"}, "[18]": {"target": "BDNF/NT-3 growth factors receptor (Homo sapiens, UniProt Q16620)", "sequence (Q16620 whole entry)": "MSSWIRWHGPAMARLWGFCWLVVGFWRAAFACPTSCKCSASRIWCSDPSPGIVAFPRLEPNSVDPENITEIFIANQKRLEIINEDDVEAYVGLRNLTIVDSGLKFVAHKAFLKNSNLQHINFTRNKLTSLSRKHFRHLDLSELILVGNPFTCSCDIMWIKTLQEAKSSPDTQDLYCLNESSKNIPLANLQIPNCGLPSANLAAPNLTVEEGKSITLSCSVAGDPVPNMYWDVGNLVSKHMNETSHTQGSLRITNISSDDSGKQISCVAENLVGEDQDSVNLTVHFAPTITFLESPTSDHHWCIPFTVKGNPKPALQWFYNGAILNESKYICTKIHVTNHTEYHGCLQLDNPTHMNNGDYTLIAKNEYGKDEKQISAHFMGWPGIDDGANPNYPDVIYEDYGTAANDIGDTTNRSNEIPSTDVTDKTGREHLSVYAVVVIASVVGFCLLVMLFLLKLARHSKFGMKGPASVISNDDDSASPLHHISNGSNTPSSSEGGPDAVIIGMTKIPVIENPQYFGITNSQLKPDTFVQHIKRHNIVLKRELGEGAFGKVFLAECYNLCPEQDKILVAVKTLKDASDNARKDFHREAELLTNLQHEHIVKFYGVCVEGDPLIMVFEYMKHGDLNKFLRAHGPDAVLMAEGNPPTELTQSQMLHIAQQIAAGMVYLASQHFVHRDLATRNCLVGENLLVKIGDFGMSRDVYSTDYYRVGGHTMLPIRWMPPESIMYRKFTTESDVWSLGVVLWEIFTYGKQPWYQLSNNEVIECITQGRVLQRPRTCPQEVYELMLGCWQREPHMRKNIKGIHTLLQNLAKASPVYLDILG", "assay": "Inhibition of recombinant human TRKB (455 to end residues) using poly(Glu, Tyr) 4:1 as substrate incubated for 40 mins in presence of [gamma33P]ATP by scintillation counting based radiometry assay"}, "[19]": {"assay": "Half life in Sprague-Dawley rat at 10 mg/kg, po measured upto 24 hrs by LC-MS/MS analysis", "type": "ADME, organism-based", "conditions": "in vivo"}, "[20]": {"target": "Mitogen-activated protein kinase 12 (Homo sapiens, UniProt P53778)", "sequence (P53778 whole entry)": "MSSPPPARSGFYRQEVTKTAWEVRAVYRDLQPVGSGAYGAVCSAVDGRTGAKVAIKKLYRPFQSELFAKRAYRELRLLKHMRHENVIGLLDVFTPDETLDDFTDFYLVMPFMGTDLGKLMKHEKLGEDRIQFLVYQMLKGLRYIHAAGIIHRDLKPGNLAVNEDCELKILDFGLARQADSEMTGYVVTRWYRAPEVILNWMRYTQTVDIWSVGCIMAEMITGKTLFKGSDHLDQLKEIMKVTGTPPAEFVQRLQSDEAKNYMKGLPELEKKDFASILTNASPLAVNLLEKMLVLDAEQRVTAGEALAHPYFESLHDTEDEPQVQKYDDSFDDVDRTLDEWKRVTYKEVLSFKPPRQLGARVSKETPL", "assay": "Inhibition of recombinant human full length SAPK3 using myelin basic protein as substrate incubated for 40 mins in presence of [gamma33P]ATP by scintillation counting based radiometry assay"}, "[21]": {"assay": "Inhibition of colony formation in […] NIH3T3 cells at > 1 uM incubated for 10 days by crystal violet assay relative to control", "type": "functional", "conditions": "dose microM >1; time 10 day"}, "[22]": {"target": "Mast/stem cell growth factor receptor Kit (Homo sapiens, UniProt P10721)", "assay": "Inhibition of recombinant human C-Kit using poly(Glu, Tyr) 4:1 as substrate incubated for 40 mins in presence of [gamma-33ATP] by scintillation counting based radiometry assay"}, "[23]": {"assay": "Growth inhibition of human TT cells incubated for 10 days by MTT assay", "type": "functional", "conditions": "240 h, time 10 day"}, "[24]": {"target": "Tyrosine-protein kinase ITK/TSK (Homo sapiens, UniProt Q08881)", "assay": "Inhibition of human ITK (352 to 617 residues) using myelin basic protein as substrate after 40 mins by [gamma-33ATP] radiometric assay"}, "[25]": {"target": "Vascular endothelial growth factor receptor 2 (Homo sapiens, UniProt P35968)", "assay": "Inhibition of human KDR (790 to end residues) using myelin basic protein as substrate after 40 mins by [gamma-33ATP] radiometric assay"}, "BaF3 [26]": {"system": "BaF3", "assay": "Growth inhibition of mouse BaF3 cells over expressing wild type RET incubated for 3 days by MTT assay", "type": "functional", "conditions": "BaF3, 72 h, time 3 day"}, "BHT-101": {"system": "BHT-101", "assay": "Growth inhibition of human BHT-101 cells incubated for 3 days by MTT assay", "type": "functional", "conditions": "BHT-101, 72 h, time 3 day"}, "HeLa": {"system": "HeLa", "assay": "Growth inhibition of human HeLa cells incubated for 3 days by MTT assay", "type": "functional", "conditions": "72 h, time 3 day"}}, "note": "The source made the active and inactive calls. The rule behind the calls is not given here."}
{"smiles": "CC(C)(C)c1cc(NC(=O)Nc2ccc(Nc3ncnc4c3OCCCN4)cc2)no1", "values": [{"measurement": "IC50", "setting": "CDK4/Cyclin D3", "value": 1110, "unit": "nM"}, {"measurement": "IC50", "setting": "[1]", "value": 262, "unit": "nM"}, {"measurement": "IC50", "setting": "[2]", "value": 214, "unit": "nM"}, {"measurement": "GI50", "setting": "BaF3 [3]", "value": "> 10000", "unit": "nM"}, {"measurement": "IC50", "setting": "[4]", "value": 232, "unit": "nM"}, {"measurement": "GI50", "setting": "NCI-H1975", "value": "> 10000", "unit": "nM"}, {"measurement": "IC50", "setting": "Ephrin type-A receptor 2", "value": 104, "unit": "nM"}, {"measurement": "GI50", "setting": "[5]", "value": "> 10000", "unit": "nM"}, {"measurement": "inhibition", "setting": "Mus musculus [6]", "value": "Active"}, {"measurement": "IC50", "setting": "[7]", "value": 6, "unit": "nM"}, {"measurement": "IC50", "setting": "[8]", "value": 9, "unit": "nM"}, {"measurement": "Cmax", "setting": "[9]", "value": 263, "unit": "µg/mL"}, {"measurement": "IC50", "setting": "[10]", "value": 50, "unit": "nM"}, {"measurement": "IC50", "setting": "[11]", "value": 179, "unit": "nM"}, {"measurement": "inhibition", "setting": "Mus musculus [12]", "value": "Active"}, {"measurement": "IC50", "setting": "[13]", "value": 1910, "unit": "nM"}, {"measurement": "GI50", "setting": "[14]", "value": "> 10000", "unit": "nM"}, {"measurement": "GI50", "setting": "BaF3 [15]", "value": 930, "unit": "nM"}, {"measurement": "IC50", "setting": "[16]", "value": 87, "unit": "nM"}, {"measurement": "GI50", "setting": "DU-145", "value": "> 10000", "unit": "nM"}, {"measurement": "CL/F", "setting": "[17]", "value": 0.383, "unit": "mL/min/kg"}, {"measurement": "IC50", "setting": "CDK9/cyclin T1", "value": 833, "unit": "nM"}, {"measurement": "GI50", "setting": "MGC-803", "value": 4310, "unit": "nM"}, {"measurement": "IC50", "setting": "Aurora kinase B", "value": 1630, "unit": "nM"}, {"measurement": "IC50", "setting": "[18]", "value": 68, "unit": "nM"}, {"measurement": "half-life", "setting": "[19]", "value": 1.54, "unit": "h"}, {"measurement": "IC50", "setting": "[20]", "value": 199, "unit": "nM"}, {"measurement": "inhibition (INH)", "setting": "[21]", "value": 100, "unit": "%"}, {"measurement": "IC50", "setting": "[22]", "value": 218, "unit": "nM"}, {"measurement": "GI50", "setting": "[23]", "value": 65, "unit": "nM"}, {"measurement": "IC50", "setting": "[24]", "value": 338, "unit": "nM"}, {"measurement": "IC50", "setting": "[25]", "value": 892, "unit": "nM"}, {"measurement": "GI50", "setting": "BaF3 [26]", "value": 100, "unit": "nM"}, {"measurement": "GI50", "setting": "BHT-101", "value": "> 10000", "unit": "nM"}, {"measurement": "GI50", "setting": "HeLa", "value": "> 10000", "unit": "nM"}]}
